Literature values as cited in patent US20100255080A1, “Liposomal ALA pharmaceutical and cosmeceutical compositions and methods of treatment” (SESVALIA USA, LLC, priority 2009, published 2010).

Settings: printed as the pH near the pka

pka: about 4
SMILES: Cl.NCC(=O)CCC(=O)O [ALA, 5-aminolevulinic acid]
